Paper PMC9511493, “2-(Fluoromethoxy)-4′-(S-methanesulfonimidoyl)-1,1′-biphenyl (UCM-1306), an Orally Bioavailable Positive Allosteric Modulator of the Human Dopamine D1 Receptor for Parkinson’s Disease” (Journal of Medicinal Chemistry, 2022)
“Also recorded” adds a separate entry of the source.

Assays:
[1] = stability in mouse liver homogenate; format: in vitro ADME; conditions: remaining compound after 24 h
Protocol: HSA binding assay. The assessment of compounds binding to HSA was performed by incubating a fixed concentration of the compound with different concentrations of immobilized HSA, using the TRANSILXL HSA Binding Kit (TMP-0210- 2096, Sovicell). An 8-well unit of the TRANSIL assay plate was used for each compound : six wells contain increasing concentrations of HSA immobilized on silica beads suspended in PBS at pH 7.4, and two wells contain buffer only and serve as references to account for nonspecific binding. The TRANSIL assay plate was thawed for 3 h at rt and centrifuged at 750g for 5 s. […] After this time, the plate was centrifuged at 750gfor 10 min, and 50 μL of the supernatants were transferred for analytical quantification by HPLC-MS using selected ion monitoring (SIM). The binding percentage was calculated from the remaining free compound concentration in the supernatant of each well, using the spreadsheet and algorithms supplied with the kit.
Stability in mouse serum. […] Supernatants were then analyzed by HPLC-MS using SIM mode, and quantification was estimated by using the peak area integration normalized with an internal standard.
Stability assay in mouse liver homogenate. Stability of test compounds and reference compound propranolol was determined by incubation in liver homogenates following previously reported procedure. […]

[2] = tested on: reserpinized C57BL/6 mice; test: locomotor activity in reserpinized mice; format: in vivo, mouse
Protocol: The study was carried out in male C57BL/6 wild-type (22–25 g) mice that were acclimatized for 5 days. Animals were randomized based on body weight into six groups (G1 to G6), ten animals per group (n = 10), being group G1 the naïve control group. Animals were fed with standard diet ad libitum. Animals were dosed with subcutaneous administration of reserpine (2.5 mg/kg in DMSO/saline) and after 20 h they were treated with a vehicle (10 mL/kg, po), compound 26 (30 mg/kg, po), L-DOPA (100 or 400 mg/kg, ip) + carbidopa (100 mg/kg, ip) and/or their combination, as indicated in Figure 7. The vehicle employed for compound 26 administration was 5% NMP + 5% solutol HS-15 + 90% normal saline. L-DOPA and carbidopa were administered 30 min prior to start of locomotor activity recording. Compound 26 was administered and 15 min later, mice were placed in the locomotor activity cage to measure the locomotor activity for 60 min (total distance travelled) using ALL Maze version 0.5 automated software enabled with video tracking system. After the activity sessions, raw data were reduced using ALL Maze 5.0 software and Microsoft Excel. Statistical analysis was done with GraphPad Prism-5 using one way ANOVA followed by Dunnett’s test/Tukey’s post hoc test and/or two-way ANOVA followed by Bonferroni post hoc test. Data were considered statistically significant, if P value was less than 0.05.

C57BL/6J mice = test: novel object recognition test; format: in vivo, mouse; conditions: 1 mg/kg ip; tested at 24 and 96 h
Protocol: Procedures for animal experiments were conducted in adherence to the European Communities Council Directive (86/609/ECC) and Spanish regulations (BOE 252/34367-91, 2005) for the use of laboratory animals. Experiments were performed on 3 month old male mice with a C57BL/6J background. Eight mice were used for each experimental condition. Mice were maintained on a 12 h light/dark cycle (lights on at 08:00 am), with water and food provided ad libitum. Object recognition test was performed according to a previously reported method.[58] Briefly, mice were first habituated to an empty open field apparatus (40 × 40 × 40 cm) for 5 min. After the habituation session, mice received an ip injection of compound 26 (1 mg/kg) or vehicle (NaCl 0.9%). Twenty minutes later, mice were placed again in the open field, which now included two identical copies of an object (“familiar” object) located in two adjacent corners, and mice were allowed to explore for 10 min (acquisition session). […] The total time of object exploration (defined as the mouse touching an object with its nose or forepaws) was scored, and object recognition memory was calculated by the following discrimination ratio: time exploring the new object—time exploring the familiar object)/total time exploring both objects.

- liver homogenate stability (%) [1]: 65%
Structure (SMILES): CS(=N)(=O)c1ccc(-c2ccccc2OCF)cc1 (centres unmarked) [Compound 26, 2-(Fluoromethoxy)-4′-(S-methanesulfonimidoyl)-1,1′-biphenyl]
- adverse effects observed in the animals ([2]; after oral dose administration, 30 mg/kg): no sign of adverse effects
- effect on locomotor activity in combination with L-DOPA ([2]; reserpine 2.5 mg/kg sc, 26 30 mg/kg po plus L-DOPA 100 or 400 mg/kg ip): moderate synergistic effect
- recovery of decreased locomotor activity, substance alone ([2]; reserpine 2.5 mg/kg sc, 26 30 mg/kg po, L-DOPA 100 or 400 mg/kg ip): small recovery of decreased locomotor activity
- memory in the novel object recognition test (C57BL/6J mice): increases memory trace; also recorded: Enhanced memory
